Some results are limits rather than exact numbers.

This series in a line: Study 1: cloxacillin in milk after intramammary infusion of Injector 1A. In kind it is in vivo, cows. The note with it: single dose, micronised form in an aqueous base. Here is the method:
A number of studies have been conducted in cows to establish the following : - Study 1: Bioavailability of cloxacillin in bovine colostrum following intramammary infusion of Injector 1A. Study 2: Irritancy of aqueous cloxacillin in the bovine mammary gland.
As a secondary objective plasma levels of Cloxacillin were also measured, in order to assess the extent of systemic absorption.
Eight animals were infused with Injector 1A in all four quarters, and samples of milk were taken at the following intervals post infusion : 0.5, 1, 2, 3, 4, 6, 8, 12, 24, 32, 48, 72, 96, 120 and 144 hours.
Quarter results were recorded for all animals (it was not possible to get samples from two of the quarters due to problems associated with hand milking of animals normally used to being machine milked). […] A peak mean value of 5233.4 mg/L was found at the first sampling interval (0.5 hr) with an approximately exponential decline being noted over the next 72 hours.

With `Cc1onc(-c2ccccc2Cl)c1C(=O)N[C@@H]1C(=O)N2[C@@H]1SC(C)(C)[C@@H]2C(=O)O` [cloxacillin benzathine], the “duration of therapeutic levels” value was “up to 72 hours”. The Tmax (bovine, milk, read-out: time to high initial peak of antibiotic) was not above 30 min.

(Values after EP0673239B1, “AQUEOUS ANTIBIOTIC COMPOSITION FOR VETERINARY USE” (priority 1992, dated 1994).)
